Assay results: the NIST ThermoML archive (doi:10.1016/j.fluid.2014.11.020)
Numbers after ± are expanded uncertainties.

Experiment: activity coefficient (dimensionless); of the first substance listed, at infinite dilution; xn = mol fraction of the nth substance listed
Settings: Liquid, Chromatography, x1 = 0

For C1CCCCCC1 [cycloheptane] + CN(C)c1cc[n+](COCCCOC[n+]2ccc(N(C)C)cc2)cc1.O=S(=O)([N-]S(=O)(=O)C(F)(F)F)C(F)(F)F.O=S(=O)([N-]S(=O)(=O)C(F)(F)F)C(F)(F)F, which activity coefficient (323.15 K) is on record?
The activity coefficient was 27 ± 1.9.

What about the activity coefficient (333.15 K) of the same compound?
The activity coefficient was 34.9 ± 2.4.

And the activity coefficient (343.15 K)?
Its activity coefficient is 42.8 ± 2.9.

What does the source list for CCCCCCCCCCC [undecane] + Cn1cc[n+](COCCCOC[n+]2ccn(C)c2)c1.N#C[N-]C#N.N#C[N-]C#N?
activity coefficient (323.15 K): 938 ± 65; activity coefficient (333.15 K): 899 ± 62; activity coefficient (343.15 K): 797 ± 55

Which activity coefficient (323.15 K) does the source give for c1ccsc1 [thiophene] + CCCCCCCCn1cc[n+](COCCCOC[n+]2ccn(CCCCCCCC)c2C)c1C.N#C[N-]C#N.N#C[N-]C#N here?
Its activity coefficient is 0.49 ± 0.04.

And the activity coefficient (333.15 K)?
The activity coefficient was 0.49 ± 0.04.

And the activity coefficient (343.15 K)?
Its activity coefficient is 0.51 ± 0.04.

What does the source list for C1CCCCCC1 [cycloheptane] + N#C[N-]C#N.N#C[N-]C#N.c1ccc(Cn2cc[n+](COCCCOC[n+]3ccn(Cc4ccccc4)c3)c2)cc1?
activity coefficient (323.15 K): 117 ± 8; activity coefficient (333.15 K): 139 ± 9.6; activity coefficient (343.15 K): 171 ± 12

Which activity coefficient (323.15 K) does the source give for CCCCCCCCCCCC [dodecane] + CCCCCCCCn1cc[n+](COCCCOC[n+]2ccn(CCCCCCCC)c2C)c1C.O=S(=O)([N-]S(=O)(=O)C(F)(F)F)C(F)(F)F.O=S(=O)([N-]S(=O)(=O)C(F)(F)F)C(F)(F)F here?
The activity coefficient was 15.4 ± 1.1.

And the activity coefficient (333.15 K)?
The activity coefficient was 13.9 ± 0.95.

What about the activity coefficient (343.15 K) of the same compound?
The activity coefficient was 13.1 ± 0.89.

For CCCC(C)=O [pentan-2-one] + Cn1cc[n+](COCCCOC[n+]2ccn(C)c2)c1.O=S(=O)([N-]S(=O)(=O)C(F)(F)F)C(F)(F)F.O=S(=O)([N-]S(=O)(=O)C(F)(F)F)C(F)(F)F, which activity coefficient (323.15 K) is on record?
The activity coefficient was 0.62 ± 0.04.

And the activity coefficient (333.15 K)?
Its activity coefficient is 0.65 ± 0.04.

And the activity coefficient (343.15 K)?
Its activity coefficient is 0.63 ± 0.04.

For CCOCC [diethyl ether] + CCCOC[n+]1ccn(C)c1.O=S(=O)([N-]S(=O)(=O)C(F)(F)F)C(F)(F)F, which activity coefficient (323.15 K) is on record?
Its activity coefficient is 2.21 ± 0.15.

And the activity coefficient (333.15 K)?
Its activity coefficient is 2.23 ± 0.15.

Which activity coefficient (323.15 K) does the source give for Cc1cccc(C)c1 [1,3-dimethylbenzene] + CCCOC[n+]1ccn(C)c1.N#C[N-]C#N here?
Its activity coefficient is 6.24 ± 0.43.

What about the activity coefficient (333.15 K) of the same compound?
The activity coefficient was 6.24 ± 0.43.

What about the activity coefficient (343.15 K) of the same compound?
The activity coefficient was 6.41 ± 0.44.

Which results are given for C1CCCCCC1 [cycloheptane] + CCCOC[n+]1ccn(Cc2ccccc2)c1.N#C[N-]C#N?
activity coefficient (323.15 K): 35.8 ± 2.5; activity coefficient (333.15 K): 47.2 ± 3.2; activity coefficient (343.15 K): 56.3 ± 3.9

Which activity coefficient (323.15 K) does the source give for CCC(C)=O [butanone] + CN(C)c1cc[n+](COCCCOC[n+]2ccc(N(C)C)cc2)cc1.O=S(=O)([N-]S(=O)(=O)C(F)(F)F)C(F)(F)F.O=S(=O)([N-]S(=O)(=O)C(F)(F)F)C(F)(F)F here?
Its activity coefficient is 0.44 ± 0.04.

What about the activity coefficient (333.15 K) of the same compound?
Its activity coefficient is 0.41 ± 0.03.

What about the activity coefficient (343.15 K) of the same compound?
Its activity coefficient is 0.38 ± 0.03.

Which activity coefficient (323.15 K) does the source give for CCCC(C)=O [pentan-2-one] + CCCCCCCCn1cc[n+](COCCCOC[n+]2ccn(CCCCCCCC)c2C)c1C.O=S(=O)([N-]S(=O)(=O)C(F)(F)F)C(F)(F)F.O=S(=O)([N-]S(=O)(=O)C(F)(F)F)C(F)(F)F here?
Its activity coefficient is 0.29 ± 0.03.

What about the activity coefficient (333.15 K) of the same compound?
Its activity coefficient is 0.29 ± 0.03.

And the activity coefficient (343.15 K)?
The activity coefficient was 0.3 ± 0.03.

For Cc1ccccc1C [1,2-dimethylbenzene] + CCCOC[n+]1ccn(Cc2ccccc2)c1.N#C[N-]C#N, which activity coefficient (323.15 K) is on record?
Its activity coefficient is 3.05 ± 0.21.

What about the activity coefficient (333.15 K) of the same compound?
Its activity coefficient is 3.03 ± 0.21.

And the activity coefficient (343.15 K)?
Its activity coefficient is 3.01 ± 0.2.

For c1ccncc1 [pyridine] + CCCOC[n+]1ccn(Cc2ccccc2)c1.O=S(=O)([N-]S(=O)(=O)C(F)(F)F)C(F)(F)F, which activity coefficient (333.15 K) is on record?
The activity coefficient was 0.28 ± 0.03.

And the activity coefficient (343.15 K)?
Its activity coefficient is 0.29 ± 0.03.

Which results are given for Cc1ccccc1C [1,2-dimethylbenzene] + Cn1cc[n+](COCCCOC[n+]2ccn(C)c2)c1.N#C[N-]C#N.N#C[N-]C#N?
activity coefficient (323.15 K): 8.42 ± 0.57; activity coefficient (333.15 K): 8.26 ± 0.56; activity coefficient (343.15 K): 8.25 ± 0.56

With CCC(C)CC [3-methylpentane] + CCCCCCCCn1cc[n+](COCCC)c1C.O=S(=O)([N-]S(=O)(=O)C(F)(F)F)C(F)(F)F as the compound, how does the activity coefficient (323.15 K) read?
Its activity coefficient is 3.57 ± 0.24.

And the activity coefficient (333.15 K)?
The activity coefficient was 3.42 ± 0.23.

And the activity coefficient (343.15 K)?
The activity coefficient was 3.05 ± 0.21.
